# Calls of active or inactive are those of the source.
# Assays:
# [1] = biological target: T1, Hexokinase (Trypanosoma brucei, UniProt Q38C41); experiment: Confirmation assay for inhibitors of Trypanosoma brucei hexokinase 1-Analogue-first series. [Related pubchem assays (depositor defined):AID1430, AID1632, AID2516, AID2560, AID2579, AID2600, AID449725, AID492951]; assay type: functional
# T1 sequence (Q38C41 whole entry): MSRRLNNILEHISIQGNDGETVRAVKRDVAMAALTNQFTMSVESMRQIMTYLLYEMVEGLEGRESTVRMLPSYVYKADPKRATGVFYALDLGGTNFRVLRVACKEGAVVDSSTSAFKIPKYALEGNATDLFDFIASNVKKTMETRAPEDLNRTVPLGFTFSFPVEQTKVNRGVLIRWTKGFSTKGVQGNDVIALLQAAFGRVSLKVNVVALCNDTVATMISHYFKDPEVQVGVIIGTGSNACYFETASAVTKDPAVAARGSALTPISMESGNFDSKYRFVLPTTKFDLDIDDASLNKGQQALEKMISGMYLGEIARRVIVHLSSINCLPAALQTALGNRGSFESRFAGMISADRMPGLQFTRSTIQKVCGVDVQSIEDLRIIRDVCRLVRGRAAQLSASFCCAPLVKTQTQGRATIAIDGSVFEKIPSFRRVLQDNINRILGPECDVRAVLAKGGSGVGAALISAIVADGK
# [2] = biological target: FAD-linked sulfhydryl oxidase ALR (Homo sapiens, UniProt P55789); experiment: inhibitors of human ALR sulfhydryl oxidase, dose response, biochemical, H2O2 detection, luminescence, cherry-pick (AID 493248)
# FAD-linked sulfhydryl oxidase ALR, sequence (P55789 whole entry): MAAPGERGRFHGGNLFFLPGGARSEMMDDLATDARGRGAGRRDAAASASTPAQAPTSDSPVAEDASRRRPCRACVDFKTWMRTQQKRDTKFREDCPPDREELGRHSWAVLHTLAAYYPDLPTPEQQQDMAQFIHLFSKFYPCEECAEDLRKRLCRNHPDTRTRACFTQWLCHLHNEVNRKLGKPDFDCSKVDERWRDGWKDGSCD
# [3] = inhibitors of Bluetongue virus cytopathic effect, confirmation, arbovirus, BSR cells (AID 1250); assay type: functional;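 further: protection from viral cytopathic effect measured as cell viability by ATP luminescence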
# [4] = growth suppression of beta-catenin-knockout colon cells, dose response, cell-based, HCT116, human colon tumor (AID 1045); assay type: functional;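 further: HCT116 colon tumor cells with beta catenin knocked out; cells exposed to compound for 60 hours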
# [5] = biological target: T2, Estrogen receptor (Homo sapiens, UniProt P03372);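 further: potency for inhibiting coactivator peptide recruitment to the receptor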
# T2 sequence (P03372 whole entry): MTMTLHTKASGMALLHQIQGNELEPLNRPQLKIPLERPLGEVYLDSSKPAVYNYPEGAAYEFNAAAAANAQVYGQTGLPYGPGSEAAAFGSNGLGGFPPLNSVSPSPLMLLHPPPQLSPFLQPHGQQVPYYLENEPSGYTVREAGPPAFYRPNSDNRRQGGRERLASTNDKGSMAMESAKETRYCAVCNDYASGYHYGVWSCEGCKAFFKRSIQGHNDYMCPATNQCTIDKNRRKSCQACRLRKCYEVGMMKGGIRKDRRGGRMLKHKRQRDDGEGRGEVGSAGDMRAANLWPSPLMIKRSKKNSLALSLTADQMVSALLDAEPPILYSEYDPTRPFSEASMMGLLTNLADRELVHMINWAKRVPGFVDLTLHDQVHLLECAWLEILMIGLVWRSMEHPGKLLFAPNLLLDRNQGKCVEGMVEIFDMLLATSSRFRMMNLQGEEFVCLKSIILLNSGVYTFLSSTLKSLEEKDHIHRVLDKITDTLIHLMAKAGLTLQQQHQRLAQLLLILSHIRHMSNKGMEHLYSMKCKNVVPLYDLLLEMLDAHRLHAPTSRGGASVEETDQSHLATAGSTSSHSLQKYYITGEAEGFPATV
# [6] = growth suppression of PTEN-null colon cells, dose response, cell-based, HCT116 PTEN knockout (AID 1047); assay type: functional;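 further: HCT116 colon tumor cells with PTEN knocked out; cells exposed to compound for 60 hours before readout; potency for loss of cell viability measured by luminescence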
# [7] = biological target: T3, Heat shock factor protein 1 (Mus musculus, UniProt P38532); experiment: HSF1 potentiators in luciferase reporter cells, confirmation, cell-based, NIH3T3, luminescence, dose retest (AID 435004); assay type: functional;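 further: stress induced by proteasome inhibitor MG132 added 30 min after compound; luciferase reporter driven by HSF1 response element in NIH3T3 cells; actives raise luminescence as potentiators of the MG132 stress response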
# T3 sequence (P38532 whole entry): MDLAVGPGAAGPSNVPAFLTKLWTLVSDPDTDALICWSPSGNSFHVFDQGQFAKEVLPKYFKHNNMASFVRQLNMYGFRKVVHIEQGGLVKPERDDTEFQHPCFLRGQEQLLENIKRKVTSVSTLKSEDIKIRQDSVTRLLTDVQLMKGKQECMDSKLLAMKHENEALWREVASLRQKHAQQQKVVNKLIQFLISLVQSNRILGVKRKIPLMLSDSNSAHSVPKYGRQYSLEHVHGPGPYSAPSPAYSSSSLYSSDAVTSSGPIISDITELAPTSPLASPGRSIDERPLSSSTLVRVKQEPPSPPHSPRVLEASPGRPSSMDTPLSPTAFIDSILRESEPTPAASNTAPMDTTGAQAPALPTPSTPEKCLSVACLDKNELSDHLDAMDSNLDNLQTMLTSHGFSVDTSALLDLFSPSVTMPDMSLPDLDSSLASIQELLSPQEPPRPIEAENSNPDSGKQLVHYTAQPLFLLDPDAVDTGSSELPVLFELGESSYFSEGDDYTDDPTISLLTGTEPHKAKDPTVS
# [8] = biological target: T4, Mannose-6-phosphate isomerase (Homo sapiens, UniProt P34949); experiment: PMI enzyme inhibitors, confirmation, biochemical, fluorescence intensity (AID 1535)
# T4 sequence (P34949 whole entry): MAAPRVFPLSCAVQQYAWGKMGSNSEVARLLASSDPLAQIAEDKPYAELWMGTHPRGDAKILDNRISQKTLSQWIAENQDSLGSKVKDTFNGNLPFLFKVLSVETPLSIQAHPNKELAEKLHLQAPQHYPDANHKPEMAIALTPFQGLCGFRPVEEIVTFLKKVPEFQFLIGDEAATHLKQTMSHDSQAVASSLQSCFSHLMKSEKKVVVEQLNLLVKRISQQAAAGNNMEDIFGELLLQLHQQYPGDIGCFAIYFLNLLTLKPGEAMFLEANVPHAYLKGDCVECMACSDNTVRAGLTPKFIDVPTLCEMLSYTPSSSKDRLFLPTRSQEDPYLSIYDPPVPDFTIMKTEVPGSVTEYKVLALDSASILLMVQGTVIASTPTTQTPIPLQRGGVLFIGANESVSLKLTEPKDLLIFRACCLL
# [9] = biological target: T5, Phosphomannomutase 2 (Homo sapiens, UniProt O15305); experiment: Counter screen SAR assay for PMM2 inhibitors via a fluorescence intensity assay. [Related pubchem assays (depositor defined):AID1545, AID1574]
# T5 sequence (O15305 whole entry): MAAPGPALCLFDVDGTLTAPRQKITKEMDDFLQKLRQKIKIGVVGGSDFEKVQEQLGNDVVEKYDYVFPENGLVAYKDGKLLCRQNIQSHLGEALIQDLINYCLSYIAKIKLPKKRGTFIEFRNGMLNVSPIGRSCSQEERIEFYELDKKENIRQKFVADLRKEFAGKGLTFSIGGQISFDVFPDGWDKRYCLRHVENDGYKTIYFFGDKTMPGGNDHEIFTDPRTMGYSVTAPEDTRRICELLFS
# [10] = biological target: T6, Ubiquitin-conjugating enzyme E2 N (Homo sapiens, UniProt P61088); assay type: functional
# T6 sequence (P61088 whole entry): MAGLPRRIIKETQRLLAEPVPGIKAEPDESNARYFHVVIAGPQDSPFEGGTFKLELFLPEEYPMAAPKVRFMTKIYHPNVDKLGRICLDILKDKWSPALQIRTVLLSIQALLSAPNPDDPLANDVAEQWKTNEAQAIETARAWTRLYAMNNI
# [11] = biological target: T7, Bcl-2-related protein A1 (Mus musculus, UniProt Q07440); assay type: functional;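 further: confirmatory dose–response counterscreen on Bfl-1, used to check hits from a UBC13 polyubiquitin inhibitor campaign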
# T7 sequence (Q07440 whole entry): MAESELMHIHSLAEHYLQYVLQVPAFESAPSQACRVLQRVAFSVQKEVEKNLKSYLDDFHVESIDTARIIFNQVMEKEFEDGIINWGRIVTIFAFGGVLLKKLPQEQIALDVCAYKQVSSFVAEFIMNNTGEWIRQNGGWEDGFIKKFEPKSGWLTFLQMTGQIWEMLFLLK
# [12] = biological target: T6, Ubiquitin-conjugating enzyme E2 N; assay type: functional; remark: listed apart in the source
# [13] = biological target: T8, CAAX prenyl protease 2 (Saccharomyces cerevisiae S288c, UniProt Q03530); assay type: biochemical
# T8 sequence (Q03530 whole entry): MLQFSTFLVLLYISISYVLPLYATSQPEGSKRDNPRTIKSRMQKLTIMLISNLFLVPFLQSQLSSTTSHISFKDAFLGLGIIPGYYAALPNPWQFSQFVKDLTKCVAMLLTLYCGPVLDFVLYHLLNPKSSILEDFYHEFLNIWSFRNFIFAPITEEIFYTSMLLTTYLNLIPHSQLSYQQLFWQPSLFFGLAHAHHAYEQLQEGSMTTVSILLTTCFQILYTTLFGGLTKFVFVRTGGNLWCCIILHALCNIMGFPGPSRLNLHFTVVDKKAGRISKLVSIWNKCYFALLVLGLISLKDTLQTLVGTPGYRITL
# [14] = biological target: T9, RNA-binding protein pos-1 (Caenorhabditis elegans, UniProt G5EF15); experiment: inhibitors of POS-1/mex-3 RNA binding, dose response, biochemical, fluorescence polarization (AID 1964);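 further: purified POS-1 fused to maltose binding protein made in E. coli; potency of compounds blocking POS-1 binding to fluorescent RNA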
# T9 sequence (G5EF15 whole entry): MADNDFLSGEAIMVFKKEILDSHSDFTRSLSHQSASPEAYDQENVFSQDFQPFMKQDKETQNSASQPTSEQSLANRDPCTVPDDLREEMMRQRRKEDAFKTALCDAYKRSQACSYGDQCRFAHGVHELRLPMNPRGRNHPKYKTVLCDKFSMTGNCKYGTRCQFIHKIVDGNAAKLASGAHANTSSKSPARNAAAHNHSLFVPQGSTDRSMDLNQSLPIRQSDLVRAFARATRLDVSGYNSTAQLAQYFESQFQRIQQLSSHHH
# [15] = biological target: T10, Zinc finger protein mex-5 (Caenorhabditis elegans, UniProt Q9XUB2); experiment: MEX-5/TCR-2 RNA interaction inhibitors, dose response, biochemical, C. elegans, fluorescence polarization (AID 1960)
# T10 sequence (Q9XUB2 whole entry): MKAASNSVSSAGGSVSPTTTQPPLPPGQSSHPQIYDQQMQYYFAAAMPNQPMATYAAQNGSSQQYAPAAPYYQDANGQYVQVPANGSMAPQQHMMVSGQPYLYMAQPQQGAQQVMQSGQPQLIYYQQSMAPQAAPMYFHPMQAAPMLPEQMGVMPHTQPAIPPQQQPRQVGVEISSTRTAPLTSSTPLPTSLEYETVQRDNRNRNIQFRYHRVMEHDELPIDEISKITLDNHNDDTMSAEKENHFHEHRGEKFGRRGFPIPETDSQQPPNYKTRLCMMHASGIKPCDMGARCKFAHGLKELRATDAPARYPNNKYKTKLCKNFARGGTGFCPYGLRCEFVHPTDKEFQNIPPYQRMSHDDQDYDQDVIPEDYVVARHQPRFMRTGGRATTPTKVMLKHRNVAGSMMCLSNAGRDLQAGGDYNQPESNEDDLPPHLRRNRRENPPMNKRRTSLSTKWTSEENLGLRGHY
# [16] = biological target: T11, Coagulation factor XII (Homo sapiens, UniProt P00748); assay type: functional;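 further: activated factor XIIa alpha cleaving a fluorogenic AMC peptide substrate; inhibitor potency from loss of enzyme activity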
# T11 sequence (P00748 whole entry): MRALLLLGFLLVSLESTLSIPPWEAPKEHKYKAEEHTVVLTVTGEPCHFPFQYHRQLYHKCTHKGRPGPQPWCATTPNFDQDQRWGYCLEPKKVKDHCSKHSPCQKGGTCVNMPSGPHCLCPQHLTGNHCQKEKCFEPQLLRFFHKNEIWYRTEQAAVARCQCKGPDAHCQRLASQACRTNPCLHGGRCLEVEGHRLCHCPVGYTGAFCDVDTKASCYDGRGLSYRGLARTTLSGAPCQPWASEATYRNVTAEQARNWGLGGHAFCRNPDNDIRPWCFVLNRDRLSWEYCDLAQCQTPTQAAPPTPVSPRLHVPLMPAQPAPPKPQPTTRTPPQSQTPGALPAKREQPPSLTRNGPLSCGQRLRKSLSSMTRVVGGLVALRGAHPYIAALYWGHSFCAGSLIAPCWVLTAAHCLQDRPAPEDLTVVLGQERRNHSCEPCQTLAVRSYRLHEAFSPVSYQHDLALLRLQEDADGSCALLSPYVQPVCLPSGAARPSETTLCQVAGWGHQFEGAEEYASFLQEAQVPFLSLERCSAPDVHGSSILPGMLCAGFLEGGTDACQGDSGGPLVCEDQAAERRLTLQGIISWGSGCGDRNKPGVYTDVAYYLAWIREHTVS
compound,measurement,setting,value
CCCCCCC(=O)Nc1cc(Cl)ccc1C(=O)O,IC50,[1],> 25 µM (inactive)
O=C(Cn1sc2ccccc2c1=O)NCc1ccccc1,IC50,[1],5.72 µM (active)
Cc1cccc(C(=O)Nc2scc(CC(C)C)c2C(=O)O)c1,AC50,[2],0.016 µM (active)
same,IC50,[3],32.3 µM (active)
CC(C)(C)c1ccc(C(=O)N2CCC(=O)c3ccc(Cl)cc32)cc1,IC50,[1],> 25 µM (inactive)
COc1ccc(/C=C/C(O)=C2/C(=O)N(C)C3(C)CC2c2ccccc2O3)cc1 (stereo not drawn),EC50,[4],8.06 µM (active)
same,IC50,[5],> 50 µM (not active)
same,EC50,[6],10.7 µM (active)
same,EC50,[7],> 260 µM (inactive)
Cc1ccc(C=Nn2c(-c3ccncc3)n[nH]c2=S)cc1,IC50,[8],16.1 µM (active)
same,IC50,[9],> 100 µM (inactive)
C[C@@H](O)C1NC(=O)[C@H](CCCCN)NC(=O)c2cc([N+](=O)[O-])cc(F)c2NCCCC[C@@H](C(N)=O)NC1=O (stereo partly drawn),IC50,[10],14.2 µM (active)
same,IC50,[11],> 20 µM (inactive)
same,IC50,[12],> 20 µM (inactive)
Cc1cc(C)c2sc(N(CCCN(C)C)C(=O)c3ccc(S(=O)(=O)N(C)Cc4ccccc4)cc3)nc2c1,IC50,[10],4.77 µM (active)
same,IC50,[11],> 20 µM (inactive)
same,IC50,[12],2.65 µM (active)
CN(C)S(=O)(=O)c1ccc(NC(=O)/C=C/c2ccccc2Cl)cc1,AC50,[13],4.18 µM (active)
CC(C)CC1=NN2C(=N)/C(=C/c3c[nH]c4ccccc34)C(=O)N=C2S1,EC50,[14],34.2 µM (inconclusive)
same,EC50,[15],47.4 µM (active)
same,IC50,[3],32.1 µM (active)
O=C(NCC(=O)N1CCN(S(=O)(=O)/C=C/c2ccccc2)CC1)c1ccccc1F,IC50,[16],> 50 µM (inactive)
CCC(C)NC(=O)CSc1nc2ccsc2c(=O)n1NC(=O)c1ccccc1 (stereo not drawn),IC50,[16],> 50 µM (inactive)
